According to US20260327204A1, “DEGRADERS OF CYCLIN-DEPENDENT KINASE 12/13, COMPOSITIONS, AND USES THEREOF” (ZHEJIANG UNIVERSITY, priority 2023, published 2026):

Legend:
CDK13 = CDK13 (Homo sapiens, UniProt Q14004); test: Western blot degradation of CDK13 (Example 3); format: cell-based; set-up: degradation of CDK12/13 protein in leukemia cells KASUMI-1, MV4-11, and Jurkat; endogenous in cells; conditions: DC50 classes; cell line not given; read-out: CDK13 degradation Activity
CDK12 = CDK12 (Homo sapiens, UniProt Q9NYV4); test: Western blot degradation of CDK12 (Example 3); format: cell-based; set-up: degradation of CDK12/13 protein in leukemia cells KASUMI-1, MV4-11, and Jurkat; endogenous in cells; conditions: DC50 classes; cell line not given; read-out: CDK12 degradation Activity
Sequence of CDK12 (Q9NYV4 whole entry): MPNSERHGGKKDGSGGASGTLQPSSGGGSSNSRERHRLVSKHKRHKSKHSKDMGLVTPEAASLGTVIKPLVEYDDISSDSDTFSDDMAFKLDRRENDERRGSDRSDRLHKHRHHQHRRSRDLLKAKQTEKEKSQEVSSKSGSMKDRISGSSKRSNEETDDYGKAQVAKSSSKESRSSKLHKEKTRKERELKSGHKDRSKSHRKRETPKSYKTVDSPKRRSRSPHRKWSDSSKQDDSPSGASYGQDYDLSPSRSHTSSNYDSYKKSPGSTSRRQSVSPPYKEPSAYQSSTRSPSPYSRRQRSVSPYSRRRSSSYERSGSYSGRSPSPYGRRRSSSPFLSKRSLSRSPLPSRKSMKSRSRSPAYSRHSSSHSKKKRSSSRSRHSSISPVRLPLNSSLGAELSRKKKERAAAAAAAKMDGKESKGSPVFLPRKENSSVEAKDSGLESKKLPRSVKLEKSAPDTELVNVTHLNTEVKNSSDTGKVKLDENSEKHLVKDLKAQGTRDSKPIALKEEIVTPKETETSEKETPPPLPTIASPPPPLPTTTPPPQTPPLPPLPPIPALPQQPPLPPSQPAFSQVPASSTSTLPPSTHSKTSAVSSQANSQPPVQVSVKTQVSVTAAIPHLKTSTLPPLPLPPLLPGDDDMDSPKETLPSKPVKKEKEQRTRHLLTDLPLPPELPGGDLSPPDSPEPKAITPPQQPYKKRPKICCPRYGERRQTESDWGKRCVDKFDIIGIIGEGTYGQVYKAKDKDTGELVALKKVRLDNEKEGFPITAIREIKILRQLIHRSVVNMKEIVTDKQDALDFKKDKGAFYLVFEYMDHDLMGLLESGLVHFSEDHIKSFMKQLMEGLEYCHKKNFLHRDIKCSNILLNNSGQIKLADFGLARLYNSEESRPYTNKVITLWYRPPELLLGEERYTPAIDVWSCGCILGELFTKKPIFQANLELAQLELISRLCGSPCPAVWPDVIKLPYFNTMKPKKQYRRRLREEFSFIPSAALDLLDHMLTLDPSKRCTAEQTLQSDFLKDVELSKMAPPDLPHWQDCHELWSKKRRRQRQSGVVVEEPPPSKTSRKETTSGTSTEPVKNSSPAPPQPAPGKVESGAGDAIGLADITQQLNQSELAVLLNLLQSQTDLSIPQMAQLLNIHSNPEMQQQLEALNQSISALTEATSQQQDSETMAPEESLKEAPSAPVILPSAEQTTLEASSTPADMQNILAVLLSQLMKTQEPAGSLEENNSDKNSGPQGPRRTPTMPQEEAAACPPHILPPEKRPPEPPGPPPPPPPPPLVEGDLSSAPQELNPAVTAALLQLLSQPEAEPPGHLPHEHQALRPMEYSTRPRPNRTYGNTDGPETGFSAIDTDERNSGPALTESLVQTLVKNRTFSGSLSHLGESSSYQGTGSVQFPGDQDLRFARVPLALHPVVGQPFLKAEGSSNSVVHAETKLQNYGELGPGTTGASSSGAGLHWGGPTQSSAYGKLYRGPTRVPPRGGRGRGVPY
Sequence of CDK12 (O75909 whole entry partner): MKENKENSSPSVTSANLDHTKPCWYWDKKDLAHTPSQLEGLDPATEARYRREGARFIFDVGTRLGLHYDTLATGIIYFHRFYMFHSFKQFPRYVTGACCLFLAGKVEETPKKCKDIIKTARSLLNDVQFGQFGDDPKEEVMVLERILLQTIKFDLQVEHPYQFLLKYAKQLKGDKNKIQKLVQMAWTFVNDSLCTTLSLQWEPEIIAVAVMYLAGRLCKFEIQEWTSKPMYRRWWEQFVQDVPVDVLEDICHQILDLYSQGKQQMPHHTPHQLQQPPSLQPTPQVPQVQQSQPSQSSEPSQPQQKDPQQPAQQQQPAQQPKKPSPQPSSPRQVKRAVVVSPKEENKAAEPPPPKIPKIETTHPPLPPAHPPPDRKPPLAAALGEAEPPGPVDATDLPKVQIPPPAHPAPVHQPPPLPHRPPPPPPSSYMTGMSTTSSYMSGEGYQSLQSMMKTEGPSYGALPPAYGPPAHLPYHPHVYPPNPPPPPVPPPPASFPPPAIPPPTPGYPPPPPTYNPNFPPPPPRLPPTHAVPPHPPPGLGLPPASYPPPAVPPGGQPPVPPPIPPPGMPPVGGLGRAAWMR

Sequence of CDK13 (Q14004 whole entry): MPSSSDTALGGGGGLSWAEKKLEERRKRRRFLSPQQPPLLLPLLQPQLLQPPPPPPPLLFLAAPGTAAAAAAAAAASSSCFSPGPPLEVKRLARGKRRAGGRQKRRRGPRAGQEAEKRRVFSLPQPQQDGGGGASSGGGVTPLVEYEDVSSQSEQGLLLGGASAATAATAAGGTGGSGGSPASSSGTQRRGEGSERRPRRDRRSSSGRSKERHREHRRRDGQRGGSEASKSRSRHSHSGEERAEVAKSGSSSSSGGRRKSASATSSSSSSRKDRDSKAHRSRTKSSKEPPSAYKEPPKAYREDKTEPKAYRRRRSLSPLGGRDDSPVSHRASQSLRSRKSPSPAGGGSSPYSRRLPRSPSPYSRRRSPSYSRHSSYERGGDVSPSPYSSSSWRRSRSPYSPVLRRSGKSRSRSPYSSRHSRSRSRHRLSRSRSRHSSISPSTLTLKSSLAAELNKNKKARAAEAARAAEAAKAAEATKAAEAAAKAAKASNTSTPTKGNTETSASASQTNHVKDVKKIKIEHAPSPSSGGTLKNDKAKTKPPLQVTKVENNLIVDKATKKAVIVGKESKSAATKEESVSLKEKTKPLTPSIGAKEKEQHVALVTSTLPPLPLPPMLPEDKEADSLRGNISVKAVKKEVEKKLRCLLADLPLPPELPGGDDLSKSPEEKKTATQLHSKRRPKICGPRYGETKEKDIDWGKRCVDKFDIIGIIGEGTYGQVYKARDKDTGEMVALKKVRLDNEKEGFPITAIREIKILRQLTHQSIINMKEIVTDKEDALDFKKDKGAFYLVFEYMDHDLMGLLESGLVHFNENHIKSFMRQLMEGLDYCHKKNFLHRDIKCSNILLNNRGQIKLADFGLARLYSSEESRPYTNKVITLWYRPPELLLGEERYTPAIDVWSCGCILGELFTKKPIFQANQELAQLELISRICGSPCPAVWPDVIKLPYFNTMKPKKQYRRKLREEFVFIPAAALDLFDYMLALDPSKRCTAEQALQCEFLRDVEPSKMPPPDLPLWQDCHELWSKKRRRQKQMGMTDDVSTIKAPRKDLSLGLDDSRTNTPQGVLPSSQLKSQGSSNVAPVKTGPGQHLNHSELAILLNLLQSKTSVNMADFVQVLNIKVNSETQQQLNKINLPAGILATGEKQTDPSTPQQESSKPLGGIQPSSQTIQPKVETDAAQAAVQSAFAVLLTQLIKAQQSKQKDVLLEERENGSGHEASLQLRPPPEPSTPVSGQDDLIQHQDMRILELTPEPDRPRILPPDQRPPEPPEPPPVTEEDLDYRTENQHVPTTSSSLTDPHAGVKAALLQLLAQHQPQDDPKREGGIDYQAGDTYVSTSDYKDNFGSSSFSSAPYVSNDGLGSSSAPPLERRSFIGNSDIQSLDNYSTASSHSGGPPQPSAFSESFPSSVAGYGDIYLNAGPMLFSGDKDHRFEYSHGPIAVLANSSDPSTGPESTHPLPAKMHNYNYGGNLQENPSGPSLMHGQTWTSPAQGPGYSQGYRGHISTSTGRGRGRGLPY
Sequence of CDK13 (O75909 whole entry partner): as the sequence (O75909 whole entry partner) above

Compound	DC50 (CDK13) [µM]	DC50 (CDK12) [µM]
CC(=O)N(c1ccc(N2CCN(C3CCN(c4ccc5c(c4)C(=O)N(C4CCC(=O)NC4=O)C5=O)C3)CC2)cc1)[C@H]1CC[C@H](Nc2ncc3ccccc3n2)CC1 (stereo partly drawn) [Formula 125, N-(4-(4-(1-(2-(2,6-dioxopiperidin-3-yl)-1,3-dioxoisoindolin-5-yl)pyrrolidin-3-yl)piperazin-1-yl)phenyl)-N-((1R,4R)-4-(quinazolin-2-ylamino)cyclohexyl)acetamide]	3 to 10	1 to 3
CC(=O)N(c1ccc(N2CCN(CC3CCN(c4ccc5c(c4)C(=O)N(C4CCC(=O)NC4=O)C5=O)C3)CC2)cc1)[C@H]1CC[C@H](Nc2ncc3ccccc3n2)CC1 (stereo partly drawn) [Formula 126, N-(4-(4-((1-(2-(2,6-dioxopiperidin-3-yl)-1,3-dioxoisoindolin-5-yl)pyrrolidin-3-yl)methyl)piperazin-1-yl)phenyl)-N-((1R,4R)-4-(quinazolin-2-ylamino)cyclohexyl)acetamide]	3 to 10	1 to 3
CC(=O)N(c1ccc(-c2cncc(C(=O)N[C@H]3CCC(=O)NC3=O)c2)cc1)[C@H]1CC[C@H](Nc2ncc3ccccc3n2)CC1 [Formula 128, N—((S)-2,6-dioxopiperidin-3-yl)-5-(4-(N-((1R,4S)-4-(quinazolin-2-ylamino)cyclohexyl)acetamido)phenyl)nicotinamide]	3 to 10	3 to 10
CC(=O)N(c1ccc(-c2ccc(C(=O)N[C@H]3CCC(=O)NC3=O)nc2)cc1)[C@H]1CC[C@H](Nc2ncc3ccccc3n2)CC1 [Formula 129, N—((S)-2,6-dioxopiperidin-3-yl)-5-(4-(N-((1R,4S)-4-(quinazolin-2-ylamino)cyclohexyl)acetamido)phenyl)pyridinecarboxamide]	3 to 10	3 to 10
CC(=O)N(c1ccc(-c2cnc(N3CCN(c4cc(NC5CCC(=O)NC5=O)ccc4F)CC3)nc2)cc1)[C@H]1CC[C@H](Nc2ncc3ccccc3n2)CC1 (stereo partly drawn) [Formula 130, N-(4-(2-(4-(5-((2,6-dioxopiperidin-3-yl)amino)-2-fluorophenyl)piperazin-1-yl)pyrimidin-5-yl)phenyl)-N-((1R,4R)-4-(quinazolin-2-ylamino)cyclohexyl)acetamide]	1 to 3	1 to 3
CC(=O)N(c1ccc(-c2cnc(OCC3CCN(CC(=O)N[C@H](C(=O)N4C[C@H](O)C[C@H]4C(=O)N[C@@H](C)c4ccc(-c5scnc5C)cc4)C(C)(C)C)CC3)nc2)cc1)[C@H]1CC[C@H](Nc2ncc3ccccc3n2)CC1 [Formula 134, (2S,4R)-1-((S)-3,3-dimethyl-2-(2-(4-(((5-(4-(N-((1R,4R)-4-(quinazolin-2-ylamino)cyclohexyl)acetamido)phenyl)pyrimidin-2-yl)oxy)methyl)piperidin-1-yl)acetamido)butanoyl)-4-hydroxy-N—((S)-1-(4-(4-methylthiazol-5-yl)phenyl)ethyl)pyrrolidine-2-carboxamide]	0.5 to 1	0.5 to 1
CC(=O)N(c1ccc(-c2ccc(OC3CCN(CC(=O)N[C@H](C(=O)N4C[C@H](O)C[C@H]4C(=O)N[C@@H](C)c4ccc(-c5scnc5C)cc4)C(C)(C)C)CC3)nc2)cc1)[C@H]1CC[C@H](Nc2ncc3ccccc3n2)CC1 [Formula 135, (2S,4R)-1-((S)-3,3-dimethyl-2-(2-(4-((5-(4-(N-((1R,4R)-4-(quinazolin-2-ylamino)cyclohexyl)acetamido)phenyl)pyridin-2-yl)oxy)piperidin-1-yl)acetamido)butanoyl)-4-hydroxy-N—((S)-1-(4-(4-methylthiazol-5-yl)phenyl)ethyl)pyrrolidine-2-carboxamide]	1 to 3	0.5 to 1
CC(=O)N(c1ccc(-c2cnc(OC3CCN(CC(=O)N[C@H](C(=O)N4C[C@H](O)C[C@H]4C(=O)N[C@@H](C)c4ccc(-c5scnc5C)cc4)C(C)(C)C)CC3)nc2)cc1)[C@H]1CC[C@H](Nc2ncc3ccccc3n2)CC1 [Formula 136, (2S,4R)-1-((S)-3,3-dimethyl-2-(2-(4-((5-(4-(N-((1R,4R)-4-(quinazolin-2-ylamino)cyclohexyl)acetamido)phenyl)pyrimidin-2-yl)oxy)piperidin-1-yl)acetamido)butanoyl)-4-hydroxy-N—((S)-1-(4-(4-methylthiazol-5-yl)phenyl)ethyl)pyrrolidine-2-carboxamide]	0.5 to 1	0.5 to 1
CC(=O)N(c1ccc(-c2ccc(N3CCC(C(=O)N[C@H](C(=O)N4C[C@H](O)C[C@H]4C(=O)N[C@@H](C)c4ccc(-c5scnc5C)cc4)C(C)(C)C)CC3)nc2)cc1)[C@H]1CC[C@H](Nc2ncc3ccccc3n2)CC1 [Formula 137, N—((S)-1-((2S,4R)-4-hydroxy-2-(((S)-1-(4-(4-methylthiazol-5-yl)phenyl)ethyl)carbamoyl)pyrrolidin-1-yl)-3,3-dimethyl-1-oxobutan-2-yl)-1-(5-(4-(N-((1R,4R)-4-(quinazolin-2-ylamino)cyclohexyl)acetamido)phenyl)pyridin-2-yl)piperidine-4-carboxamide]	3 to 10	3 to 10

Continued, values first:

DC50 (CDK13) [µM]	DC50 (CDK12) [µM]	Compound
0.5 to 1	0.5 to 1	CC(=O)N(c1ccc(N2CCN(CC3CN(c4ccc5c(c4)C(=O)N(C4CCC(=O)NC4=O)C5=O)C3)CC2)cc1)[C@H]1CC[C@H](Nc2ncc3ccccc3n2)CC1 (stereo partly drawn) [Formula 127, N-(4-(4-((1-(2-(2,6-dioxopiperidin-3-yl)-1,3-dioxoisoindolin-5-yl)azetidin-3-yl)methyl)piperazin-1-yl)phenyl)-N-((1R,4R)-4-(quinazolin-2-ylamino)cyclohexyl)acetamide]
0.5 to 1	0.5 to 1	CC(=O)N(c1ccc(-c2ccc(OCCOCC(=O)N[C@H](C(=O)N3C[C@H](O)C[C@H]3C(=O)N[C@@H](C)c3ccc(-c4scnc4C)cc3)C(C)(C)C)nc2)cc1)[C@H]1CC[C@H](Nc2ncc3ccccc3n2)CC1 [Formula 131, (2S,4R)-1-((S)-3,3-dimethyl-2-(2-(2-((5-(4-(N-((1R,4R)-4-(quinazolin-2-ylamino)cyclohexyl)acetamido)phenyl)pyridin-2-yl)oxy)ethoxy)acetamido)butanoyl)-4-hydroxy-N—((S)-1-(4-(4-methylthiazol-5-yl)phenyl)ethyl)pyrrolidine-2-carboxamide]
0.5 to 1	0.5 to 1	CC(=O)N(c1ccc(-c2cnc(OCCOCC(=O)N[C@H](C(=O)N3C[C@H](O)C[C@H]3C(=O)N[C@@H](C)c3ccc(-c4scnc4C)cc3)C(C)(C)C)nc2)cc1)[C@H]1CC[C@H](Nc2ncc3ccccc3n2)CC1 [Formula 132, (2S,4R)-1-((S)-3,3-dimethyl-2-(2-(2-((5-(4-(N-((1R,4R)-4-(quinazolin-2-ylamino)cyclohexyl)acetamido)phenyl)pyrimidin-2-yl)oxy)ethoxy)acetamido)butanoyl)-4-hydroxy-N—((S)-1-(4-(4-methylthiazol-5-yl)phenyl)ethyl)pyrrolidine-2-carboxamide]
0.1 to 0.5	0.5 to 1	CC(=O)N(c1ccc(-c2ccc(OCC3CCN(CC(=O)N[C@H](C(=O)N4C[C@H](O)C[C@H]4C(=O)N[C@@H](C)c4ccc(-c5scnc5C)cc4)C(C)(C)C)CC3)nc2)cc1)[C@H]1CC[C@H](Nc2ncc3ccccc3n2)CC1 [Formula 133, (2S,4R)-1-((S)-3,3-dimethyl-2-(2-(4-(((5-(4-(N-((1R,4R)-4-(quinazolin-2-ylamino)cyclohexyl)acetamido)phenyl)pyridin-2-yl)oxy)methyl)piperidin-1-yl)acetamido)butanoyl)-4-hydroxy-N—((S)-1-(4-(4-methylthiazol-5-yl)phenyl)ethyl)pyrrolidine-2-carboxamide]
